Measured values as given in ChEMBL document CHEMBL5113453, “Design, synthesis, and biological evaluation of a new series of pyrazole derivatives: Discovery of potent and selective JNK3 kinase inhibitors” (Bioorg Med Chem, 2022).

Experiments:
[1] = system: SF-539; experiment: Antiproliferative activity against human SF-539 cells measured after 48 hrs by SRB assay; type: functional, cell-based; conditions: for IC50: SF-539, 48 h; for TGI: SF-539, time 48 hrs
[2] = system: SF-295; experiment: Antiproliferative activity against human SF-295 cells measured after 48 hrs by SRB assay; type: functional, cell-based; conditions: for IC50: SF-295, 48 h; for TGI: SF-295, time 48 hrs
[3] = system: NCI-H460; experiment: Antiproliferative activity against human NCI-H460 cells measured after 48 hrs by SRB assay; type: functional, cell-based; conditions: for IC50: NCI-H460, 48 h; for TGI: NCI-H460, time 48 hrs
[4] = system: Hs-578T; experiment: Antiproliferative activity against human Hs-578T cells measured after 48 hrs by SRB assay; type: functional, cell-based; conditions: for IC50: 48 h; for TGI: time 48 hrs
[5] = system: SK-MEL-2; experiment: Antiproliferative activity against human SK-MEL-2 cells measured after 48 hrs by SRB assay; type: functional, cell-based; conditions: for IC50: SK-MEL-2, 48 h; for TGI: SK-MEL-2, time 48 hrs
[6] = system: MDA-MB-231; experiment: Antiproliferative activity against human MDA-MB-231 cells measured after 48 hrs by SRB assay; type: functional, cell-based; conditions: for IC50: MDA-MB-231, 48 h; for TGI: MDA-MB-231, time 48 hrs
[7] = biological target: T1, Mitogen-activated protein kinase 9 (Homo sapiens, UniProt P45984); experiment: Inhibition of JNK2-alpha-2 (unknown origin)
Target sequence in this assay (P45984 whole entry): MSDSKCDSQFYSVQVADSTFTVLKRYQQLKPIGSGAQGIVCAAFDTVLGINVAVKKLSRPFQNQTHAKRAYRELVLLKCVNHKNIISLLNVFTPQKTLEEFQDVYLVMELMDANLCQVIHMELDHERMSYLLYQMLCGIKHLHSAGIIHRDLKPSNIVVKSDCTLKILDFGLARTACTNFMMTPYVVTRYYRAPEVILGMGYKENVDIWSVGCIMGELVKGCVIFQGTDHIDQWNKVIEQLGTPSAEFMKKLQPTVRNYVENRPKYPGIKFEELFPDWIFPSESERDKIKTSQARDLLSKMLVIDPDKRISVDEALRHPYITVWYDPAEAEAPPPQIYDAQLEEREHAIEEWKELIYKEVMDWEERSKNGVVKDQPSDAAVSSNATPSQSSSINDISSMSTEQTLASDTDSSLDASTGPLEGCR

[8] = system: T47D; experiment: Antiproliferative activity against human T47D cells measured after 48 hrs by SRB assay; type: functional, cell-based; conditions: for IC50: 48 h; for TGI: time 48 hrs
[9] = biological target: T2, Mitogen-activated protein kinase 8 (Homo sapiens, UniProt P45983); experiment: Inhibition of JNK1-alpha-1 (unknown origin) at 1 uM relative to control
T2 sequence (P45983 whole entry): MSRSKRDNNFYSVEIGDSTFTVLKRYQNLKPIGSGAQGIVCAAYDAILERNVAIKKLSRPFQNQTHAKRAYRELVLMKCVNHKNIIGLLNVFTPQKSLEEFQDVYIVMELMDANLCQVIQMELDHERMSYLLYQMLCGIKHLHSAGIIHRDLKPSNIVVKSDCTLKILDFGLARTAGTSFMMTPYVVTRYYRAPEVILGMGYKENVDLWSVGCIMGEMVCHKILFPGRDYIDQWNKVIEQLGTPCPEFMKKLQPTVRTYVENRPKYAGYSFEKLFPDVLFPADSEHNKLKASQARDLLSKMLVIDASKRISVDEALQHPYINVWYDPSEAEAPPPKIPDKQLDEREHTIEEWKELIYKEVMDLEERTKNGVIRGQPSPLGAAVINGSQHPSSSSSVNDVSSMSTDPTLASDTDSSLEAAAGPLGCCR

[10] = system: SK-MEL-5; experiment: Antiproliferative activity against human SK-MEL-5 cells measured after 48 hrs by SRB assay; type: functional, cell-based; conditions: for IC50: SK-MEL-5, 48 h; for TGI: SK-MEL-5, time 48 hrs
[11] = system: TK-10; experiment: Antiproliferative activity against human TK-10 cells measured after 48 hrs by SRB assay; type: functional, cell-based; conditions: for IC50: TK-10, 48 h; for TGI: TK-10, time 48 hrs
[12] = biological target: T3, Vascular endothelial growth factor receptor 3 (Homo sapiens, UniProt P35916); experiment: Inhibition of FLT4 (unknown origin)
T3 sequence (P35916 whole entry): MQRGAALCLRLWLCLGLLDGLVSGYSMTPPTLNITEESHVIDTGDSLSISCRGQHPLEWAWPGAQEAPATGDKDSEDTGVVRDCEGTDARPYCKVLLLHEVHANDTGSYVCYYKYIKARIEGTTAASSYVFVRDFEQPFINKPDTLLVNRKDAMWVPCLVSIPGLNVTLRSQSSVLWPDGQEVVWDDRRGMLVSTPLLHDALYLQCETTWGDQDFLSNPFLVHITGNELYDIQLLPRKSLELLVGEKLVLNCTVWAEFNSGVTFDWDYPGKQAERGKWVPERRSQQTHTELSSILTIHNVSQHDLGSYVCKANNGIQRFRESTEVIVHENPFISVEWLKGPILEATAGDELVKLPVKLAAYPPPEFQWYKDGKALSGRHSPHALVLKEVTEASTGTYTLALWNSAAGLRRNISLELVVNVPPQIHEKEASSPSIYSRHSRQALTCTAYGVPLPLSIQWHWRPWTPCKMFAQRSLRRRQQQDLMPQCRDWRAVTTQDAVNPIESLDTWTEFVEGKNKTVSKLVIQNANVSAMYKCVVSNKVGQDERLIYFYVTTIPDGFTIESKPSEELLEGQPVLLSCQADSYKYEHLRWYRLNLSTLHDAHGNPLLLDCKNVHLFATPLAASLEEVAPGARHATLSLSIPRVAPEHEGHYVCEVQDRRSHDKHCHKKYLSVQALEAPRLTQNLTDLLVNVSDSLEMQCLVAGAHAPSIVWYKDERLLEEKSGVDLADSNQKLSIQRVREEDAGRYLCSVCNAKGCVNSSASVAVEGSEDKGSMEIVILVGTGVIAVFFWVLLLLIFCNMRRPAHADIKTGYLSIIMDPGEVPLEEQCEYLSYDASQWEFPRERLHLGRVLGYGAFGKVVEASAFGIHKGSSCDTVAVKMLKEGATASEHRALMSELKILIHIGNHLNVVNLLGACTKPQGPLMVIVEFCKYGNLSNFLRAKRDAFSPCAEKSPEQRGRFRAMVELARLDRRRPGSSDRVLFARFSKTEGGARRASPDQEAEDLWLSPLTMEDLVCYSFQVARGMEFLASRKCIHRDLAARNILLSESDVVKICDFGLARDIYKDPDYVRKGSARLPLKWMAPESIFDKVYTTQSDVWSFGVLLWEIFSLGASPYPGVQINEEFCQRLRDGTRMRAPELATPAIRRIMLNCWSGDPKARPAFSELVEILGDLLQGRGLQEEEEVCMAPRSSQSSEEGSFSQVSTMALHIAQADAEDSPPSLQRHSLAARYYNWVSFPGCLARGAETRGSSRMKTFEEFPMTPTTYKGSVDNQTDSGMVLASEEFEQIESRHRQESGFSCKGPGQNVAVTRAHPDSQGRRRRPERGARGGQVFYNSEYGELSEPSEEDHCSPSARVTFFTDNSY

[13] = system: NCI-H23; experiment: Antiproliferative activity against human NCI-H23 cells measured after 48 hrs by SRB assay; type: functional, cell-based; conditions: for IC50: NCI-H23, 48 h; for TGI: NCI-H23, time 48 hrs
[14] = biological target: Cytochrome P450 2D6 (Homo sapiens, UniProt P10635); experiment: Inhibition of CYP2D6 (unknown origin) using EOMCC as a substrate; type: ADME
Chain of Cytochrome P450 2D6 (P10635 whole entry): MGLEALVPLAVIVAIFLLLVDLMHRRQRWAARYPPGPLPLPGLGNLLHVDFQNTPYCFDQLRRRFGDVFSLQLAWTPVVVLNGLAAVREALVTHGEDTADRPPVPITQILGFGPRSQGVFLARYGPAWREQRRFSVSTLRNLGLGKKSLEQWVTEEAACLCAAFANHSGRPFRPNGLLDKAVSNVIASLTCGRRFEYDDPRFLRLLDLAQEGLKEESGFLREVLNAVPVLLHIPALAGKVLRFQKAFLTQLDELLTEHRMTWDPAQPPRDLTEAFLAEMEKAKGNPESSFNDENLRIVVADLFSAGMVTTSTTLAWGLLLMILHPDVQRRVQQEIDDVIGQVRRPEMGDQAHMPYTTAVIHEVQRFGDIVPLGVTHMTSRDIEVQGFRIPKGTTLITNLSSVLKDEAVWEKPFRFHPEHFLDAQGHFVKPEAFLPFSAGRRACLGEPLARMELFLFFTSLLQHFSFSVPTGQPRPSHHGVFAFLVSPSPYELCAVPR

[15] = system: CCRF-CEM; experiment: Antiproliferative activity against human CCRF-CEM cells measured after 48 hrs by SRB assay; type: functional, cell-based; conditions: for IC50: 48 h; for TGI: time 48 hrs
[16] = biological target: T3, Vascular endothelial growth factor receptor 3; experiment: Inhibition of FLT4 (unknown origin) at 1 uM relative to control
[17] = biological target: Cytochrome P450 3A4 (Homo sapiens, UniProt P08684); experiment: Inhibition of CYP3A4 (unknown origin) using BOMCC as a substrate; type: ADME
Chain of Cytochrome P450 3A4 (P08684 whole entry): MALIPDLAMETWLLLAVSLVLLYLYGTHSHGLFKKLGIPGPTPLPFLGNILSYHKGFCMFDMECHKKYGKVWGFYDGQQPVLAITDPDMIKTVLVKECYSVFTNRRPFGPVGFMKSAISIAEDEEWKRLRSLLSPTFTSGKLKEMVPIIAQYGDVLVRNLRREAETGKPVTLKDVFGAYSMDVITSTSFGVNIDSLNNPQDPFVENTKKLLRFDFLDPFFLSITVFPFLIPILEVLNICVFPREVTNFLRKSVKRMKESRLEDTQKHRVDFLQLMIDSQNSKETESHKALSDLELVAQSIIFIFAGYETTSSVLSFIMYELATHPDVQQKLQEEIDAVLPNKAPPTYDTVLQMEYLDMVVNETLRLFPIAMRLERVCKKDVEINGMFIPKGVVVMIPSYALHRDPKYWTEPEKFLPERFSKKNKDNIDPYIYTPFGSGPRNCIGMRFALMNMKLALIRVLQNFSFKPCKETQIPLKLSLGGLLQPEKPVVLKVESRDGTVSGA

[18] = system: UO-31; experiment: Antiproliferative activity against human UO-31 cells measured after 48 hrs by SRB assay; type: functional, cell-based; conditions: for IC50: UO-31, 48 h; for TGI: UO-31, time 48 hrs
[19] = biological target: Voltage-gated inwardly rectifying potassium channel KCNH2 (Homo sapiens, UniProt Q12809); experiment: Inhibition of hERG measured by fluorescence polarization assay
Chain of Voltage-gated inwardly rectifying potassium channel KCNH2 (Q12809 whole entry): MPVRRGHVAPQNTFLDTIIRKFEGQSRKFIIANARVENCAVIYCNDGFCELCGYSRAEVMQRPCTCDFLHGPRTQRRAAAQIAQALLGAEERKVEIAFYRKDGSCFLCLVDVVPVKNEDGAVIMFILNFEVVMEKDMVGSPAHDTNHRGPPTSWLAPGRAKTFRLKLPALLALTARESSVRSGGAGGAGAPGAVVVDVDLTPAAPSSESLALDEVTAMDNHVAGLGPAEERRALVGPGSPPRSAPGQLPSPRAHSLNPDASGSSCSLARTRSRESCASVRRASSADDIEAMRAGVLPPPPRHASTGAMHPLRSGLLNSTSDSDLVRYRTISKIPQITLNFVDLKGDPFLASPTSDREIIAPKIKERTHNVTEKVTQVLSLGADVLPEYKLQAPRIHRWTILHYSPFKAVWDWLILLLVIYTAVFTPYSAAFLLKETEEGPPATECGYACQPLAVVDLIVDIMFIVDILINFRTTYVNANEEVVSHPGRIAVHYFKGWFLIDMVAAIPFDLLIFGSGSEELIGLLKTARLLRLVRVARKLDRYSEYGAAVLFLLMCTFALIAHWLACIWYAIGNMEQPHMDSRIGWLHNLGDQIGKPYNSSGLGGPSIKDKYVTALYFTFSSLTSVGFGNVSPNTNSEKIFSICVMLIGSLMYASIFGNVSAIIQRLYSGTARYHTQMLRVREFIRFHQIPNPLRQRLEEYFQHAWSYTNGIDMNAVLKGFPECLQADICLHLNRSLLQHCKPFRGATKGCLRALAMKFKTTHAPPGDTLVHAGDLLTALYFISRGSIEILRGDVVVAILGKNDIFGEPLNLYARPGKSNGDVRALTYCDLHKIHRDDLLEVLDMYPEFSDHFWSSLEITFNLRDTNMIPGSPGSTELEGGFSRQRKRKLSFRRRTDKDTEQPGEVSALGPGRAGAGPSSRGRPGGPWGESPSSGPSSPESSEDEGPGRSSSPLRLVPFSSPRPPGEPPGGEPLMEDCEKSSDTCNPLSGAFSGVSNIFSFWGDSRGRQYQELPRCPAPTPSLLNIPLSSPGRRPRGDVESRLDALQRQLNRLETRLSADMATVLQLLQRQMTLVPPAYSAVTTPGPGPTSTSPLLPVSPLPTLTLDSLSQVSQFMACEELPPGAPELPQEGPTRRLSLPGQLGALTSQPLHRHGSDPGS

[20] = system: IGROV-1; experiment: Antiproliferative activity against human IGROV-1 cells measured after 48 hrs by SRB assay; type: functional, cell-based; conditions: for IC50: IGROV-1, 48 h; for TGI: IGROV-1, time 48 hrs
[21] = system: RPMI-8226; experiment: Induction of necrosis in human RPMI-8226 cells assessed as LDH release at 0.87 uM; type: functional
[22] = system: HOP-62; experiment: Antiproliferative activity against human HOP-62 cells measured after 48 hrs by SRB assay; type: functional, cell-based; conditions: for IC50: HOP-62, 48 h; for TGI: HOP-62, time 48 hrs
[23] = system: U-251; experiment: Antiproliferative activity against human U-251 cells measured after 48 hrs by SRB assay; type: functional, cell-based; conditions: for IC50: U-251, 48 h; for TGI: U-251, time 48 hrs
[24] = biological target: T1, Mitogen-activated protein kinase 9; experiment: Inhibition of JNK2-alpha-2 (unknown origin) at 1 uM relative to control
[25] = system: RPMI-8226; experiment: Induction of apoptosis in human RPMI-8226 cells assessed as fold increase in caspase-3/7 activity at 0.87 uM; type: functional
[26] = biological target: Mitogen-activated protein kinase 10 (Homo sapiens, UniProt P53779); experiment: Inhibition of JNK3 in human HEK293 cells transfected with JNK3-NanoLuc fusion vector measured after 1 hr by NanoBRET assay; type: cell-based
Chain of Mitogen-activated protein kinase 10 (P53779 whole entry, the tested form may be a part): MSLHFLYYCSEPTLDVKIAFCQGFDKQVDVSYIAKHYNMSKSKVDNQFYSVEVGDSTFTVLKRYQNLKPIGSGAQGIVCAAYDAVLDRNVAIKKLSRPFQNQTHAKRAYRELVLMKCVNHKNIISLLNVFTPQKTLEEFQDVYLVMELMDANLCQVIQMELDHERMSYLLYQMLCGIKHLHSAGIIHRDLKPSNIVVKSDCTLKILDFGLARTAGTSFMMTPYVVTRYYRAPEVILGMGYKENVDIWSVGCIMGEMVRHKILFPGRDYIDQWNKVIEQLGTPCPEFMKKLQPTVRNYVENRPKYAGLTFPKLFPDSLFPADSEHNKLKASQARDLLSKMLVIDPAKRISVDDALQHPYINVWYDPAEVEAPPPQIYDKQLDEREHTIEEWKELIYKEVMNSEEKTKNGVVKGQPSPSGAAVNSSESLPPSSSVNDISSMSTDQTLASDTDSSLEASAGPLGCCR

[27] = system: COLO 205; experiment: Antiproliferative activity against human COLO 205 cells measured after 48 hrs by SRB assay; type: functional, cell-based; conditions: for IC50: COLO 205, 48 h; for TGI: COLO 205, time 48 hrs
[28] = system: RPMI-8226; experiment: Induction of apoptosis in human RPMI-8226 cells assessed as fold increase in caspase-3/7 activity at 5.47 uM; type: functional
[29] = species: Homo sapiens; experiment: Ratio IC50 for inhibition of FLT4 (unknown origin) over IC50 for JNK3 (unknown origin)
[30] = system: MDA-MB-435; experiment: Antiproliferative activity against human MDA-MB-435 cells measured after 48 hrs by SRB assay; type: functional, cell-based; conditions: for IC50: MDA-MB-435, 48 h; for TGI: MDA-MB-435, time 48 hrs
[31] = system: MCF7; experiment: Antiproliferative activity against human MCF7 cells measured after 48 hrs by SRB assay; type: functional, cell-based; conditions: for IC50: MCF7, 48 h; for TGI: MCF7, time 48 hrs
[32] = system: HCC 2998; experiment: Antiproliferative activity against human HCC 2998 cells measured after 48 hrs by SRB assay; type: functional, cell-based; conditions: for IC50: HCC 2998, 48 h; for TGI: HCC 2998, time 48 hrs
[33] = biological target: T2, Mitogen-activated protein kinase 8; experiment: Inhibition of JNK1-alpha-1 (unknown origin)
[34] = system: HT-29; experiment: Antiproliferative activity against human HT-29 cells measured after 48 hrs by SRB assay; type: functional, cell-based; conditions: for IC50: HT-29, 48 h; for TGI: HT-29, time 48 hrs
[35] = system: UACC-257; experiment: Antiproliferative activity against human UACC-257 cells measured after 48 hrs by SRB assay; type: functional, cell-based; conditions: for IC50: UACC-257, 48 h; for TGI: UACC-257, time 48 hrs
[36] = system: HOP-92; experiment: Antiproliferative activity against human HOP-92 cells measured after 48 hrs by SRB assay; type: functional, cell-based; conditions: for IC50: HOP-92, 48 h; for TGI: HOP-92, time 48 hrs

For O=C(NCCCNc1cc(-c2cn(-c3ccccc3)nc2-c2cccc(O)c2)ccn1)Nc1ccc(F)cc1, the IC50 [1] was 1.98 µM, the TGI [1] was 5.38 µM and the IC50 [2] was 1.38 µM. For the same compound, the TGI [2] was 4.84 µM, the IC50 [3] was 2.35 µM and the TGI [3] was 5.88 µM. It also gave an IC50 [4] of 0.98 µM, a TGI [4] of 5.31 µM and an IC50 [5] of 4 µM. For the same compound, the TGI [5] was 10.1 µM, the IC50 [6] was 2.18 µM and the TGI [6] was 7.78 µM. For the same compound, the IC50 [7] was 1 µM, the IC50 [8] was 1.89 µM and the TGI [8] was 11 µM. The inhibition [9] was 52%, the IC50 [10] was 1.64 µM and the TGI [10] was 4.83 µM. The IC50 [11] was 6.78 µM, the TGI [11] was 20.3 µM and the IC50 [12] was 0.791 µM. The IC50 [13] was 3.11 µM, the TGI [13] was 7.65 µM and the IC50 [14] was 5.54 µM. For the same compound, the IC50 [15] was 1.42 µM, the TGI [15] was over 25 µM and the inhibition [16] was 84%. For the same compound, the IC50 [17] was 18.7 µM, the IC50 [18] was 1.58 µM and the TGI [18] was 9.7 µM. The IC50 [19] was over 50 µM, the IC50 [20] was 1.23 µM and the TGI [20] was 5.82 µM. It also gave an Activity [21] of 8.5%, an IC50 [22] of 3.24 µM and a TGI [22] of 9.26 µM. For the same compound, the IC50 [23] was 2.05 µM, the TGI [23] was 7.55 µM and the inhibition [24] was 53%. For the same compound, the “fold change (FC)” value [25] was 1.84, the IC50 [26] was 3.84 µM and the IC50 [27] was 2.34 µM. The TGI [27] was 6.28 µM, the “fold change (FC)” value [28] was 2.75 and the Ratio IC50 [29] was 8.2. The IC50 [30] was 1.66 µM, the TGI [30] was 5.05 µM and the IC50 [31] was 2.32 µM. It also gave a TGI [31] of 6.04 µM, an IC50 [32] of 1.09 µM and a TGI [32] of 4.05 µM. The IC50 [33] was 1 µM, the IC50 [34] was 1.09 µM and the TGI [34] was 4.99 µM. The IC50 [35] was 3.07 µM, the TGI [35] was 7.54 µM and the IC50 [36] was 0.86 µM. For the same compound, the TGI [36] was 4.97 µM.
Work on COc1cccc(-c2nn(-c3ccccc3)cc2-c2ccnc(NCCCNC(=O)Nc3ccc(F)cc3)c2)c1 yielded an IC50 [1] of 6.34 µM, a TGI [1] of 13.4 µM and an IC50 [2] of 7.16 µM. It also gave a TGI [2] of 21.7 µM, an IC50 [3] of 6.54 µM and a TGI [3] of 17.1 µM. It also gave an IC50 [4] of 6.24 µM, a TGI [4] of 17.9 µM and an IC50 [5] of 6.3 µM. For the same compound, the TGI [5] was 12.6 µM, the IC50 [6] was 7.84 µM and the TGI [6] was 23 µM. It also gave an IC50 [8] of 7.95 µM, a TGI [8] of over 37 µM and an IC50 [10] of 5.64 µM. It also gave a TGI [10] of 10.8 µM, an IC50 [11] of 21.2 µM and a TGI [11] of over 37 µM. For the same compound, the IC50 [13] was 10.1 µM, the TGI [13] was over 37 µM and the IC50 [15] was 8.53 µM. It also gave a TGI [15] of 31.5 µM, an IC50 [18] of 5.1 µM and a TGI [18] of over 37 µM. The IC50 [20] was 9.34 µM, the TGI [20] was over 37 µM and the IC50 [22] was 14.7 µM. It also gave a TGI [22] of over 37 µM, an IC50 [23] of 9.84 µM and a TGI [23] of over 37 µM. The IC50 [27] was 8.17 µM, the TGI [27] was 29.3 µM and the IC50 [30] was 5.61 µM. It also gave a TGI [30] of 12.8 µM, an IC50 [31] of 7.17 µM and a TGI [31] of 18 µM. It also gave an IC50 [32] of 7.38 µM, a TGI [32] of 20 µM and an IC50 [34] of 7.17 µM. It also gave a TGI [34] of 18.2 µM, an IC50 [35] of 7.05 µM and a TGI [35] of 16.9 µM. It also gave an IC50 [36] of 6.25 µM and a TGI [36] of 31.1 µM.
